Source: patent US20220046923A1, “HERBICIDAL CINNOLINIUM COMPOUNDS” (SYNGENTA CROP PROTECTION AG, priority 2018, published 2022)

What was measured:
Assay in all cases: Post-emergence efficacy, glasshouse spray test
Assay type in all cases: in vivo
[1] = system: Euphorbia heterophylla (EPHHL); conditions: evaluated after 13 days; for Control of weed species EPHHL after post-emergence application (100=total damage to plant; 0=no damage to plant) / pest or weed control at 1000 g/ha: application rate 1000 g/Ha
Description: (§1) Seeds of a variety of test species were sown in standard soil in pots. After cultivation for 14 days (post-emergence) under controlled conditions in a glasshouse (at 24/16° C., day/night; 14 hours light; 65% humidity), the plants were sprayed with an aqueous spray solution derived from the dissolution of the technical active ingredient formula (I) in a small amount of acetone and a special solvent and emulsifier mixture referred to as IF50 (11.12% Emulsogen EL360 TM+44.44% N-methylpyrrolidone+44.44% Dowanol DPM glycol ether), to create a 50 g/l solution which was then diluted to required concentration using 0.25% or 1% Empicol ESC70 (Sodium lauryl ether sulphate)+1% ammonium sulphate as diluent. The test plants were then grown in a glasshouse under controlled conditions (at 24/16° C., day/night; 14 hours light; 65% humidity) and watered twice daily. After 13 days the test was evaluated (100=total damage to plant; 0=no damage to plant).
(§2) Ipomoea hederacea (IPOHE), Euphorbia heterophylla (EPHHL), Chenopodium album (CHEAL), Amaranthus palmeri (AMAPA), Lolium perenne (LOLPE), Digitaria sanguinalis (DIGSA), Eleusine indica (ELEIN), Echinochloa crus-galli (ECHCG), Setaria faberi (SETFA)

[2] = system: Ipomoea hederacea (IPOHE); conditions: evaluated after 13 days; for Control of weed species IPOHE after post-emergence application (100=total damage to plant; 0=no damage to plant) / pest or weed control at 1000 g/ha: application rate 1000 g/Ha
Description: as §1, §2

[3] = system: Echinochloa crus-galli (ECHCG); conditions: evaluated after 13 days; for Control of weed species ECHCG after post-emergence application (100=total damage to plant; 0=no damage to plant) / pest or weed control at 1000 g/ha: application rate 1000 g/Ha
Description: as §1, §2

[4] = system: Amaranthus palmeri (AMAPA); conditions: evaluated after 13 days; for Control of weed species AMAPA after post-emergence application (100=total damage to plant; 0=no damage to plant) / pest or weed control at 1000 g/ha: application rate 1000 g/Ha
Description: as §1, §2

Setaria faberi (SETFA) = conditions: evaluated after 13 days; for Control of weed species SETFA after post-emergence application (100=total damage to plant; 0=no damage to plant) / pest or weed control at 1000 g/ha: application rate 1000 g/Ha
Description: as §1, §2

Eleusine indica (ELEIN) = conditions: evaluated after 13 days; for Control of weed species ELEIN after post-emergence application (100=total damage to plant; 0=no damage to plant) / pest or weed control at 1000 g/ha: application rate 1000 g/Ha
Description: as §1, §2

[5] = system: Chenopodium album (CHEAL); conditions: evaluated after 13 days; for Control of weed species CHEAL after post-emergence application (100=total damage to plant; 0=no damage to plant) / pest or weed control at 1000 g/ha: application rate 1000 g/Ha
Description: as §1, §2

[6] = system: Digitaria sanguinalis (DIGSA); conditions: evaluated after 13 days; for Control of weed species DIGSA after post-emergence application (100=total damage to plant; 0=no damage to plant) / pest or weed control at 1000 g/ha: application rate 1000 g/Ha
Description: as §1, §2

Lolium perenne (LOLPE) = conditions: evaluated after 13 days; for Control of weed species LOLPE after post-emergence application (100=total damage to plant; 0=no damage to plant) / pest or weed control at 1000 g/ha: application rate 1000 g/Ha
Description: as §1, §2

[7] = Euphorbia heterophylla, post-emergence, 312 h, read-out: Control of weed species EPHHL after post-emergence application (100=total damage to plant; 0=no damage to plant)
[8] = Ipomoea hederacea, post-emergence, 312 h, read-out: Control of weed species IPOHE after post-emergence application (100=total damage to plant; 0=no damage to plant)
[9] = Echinochloa crus-galli, post-emergence, 312 h, read-out: Control of weed species ECHCG after post-emergence application (100=total damage to plant; 0=no damage to plant)
[10] = Amaranthus palmeri, post-emergence, 312 h, read-out: Control of weed species AMAPA after post-emergence application (100=total damage to plant; 0=no damage to plant)
[11] = Setaria faberi, post-emergence, 312 h, read-out: Control of weed species SETFA after post-emergence application (100=total damage to plant; 0=no damage to plant)
[12] = Eleusine indica, post-emergence, 312 h, read-out: Control of weed species ELEIN after post-emergence application (100=total damage to plant; 0=no damage to plant)
[13] = Chenopodium album, post-emergence, 312 h, read-out: Control of weed species CHEAL after post-emergence application (100=total damage to plant; 0=no damage to plant)
[14] = Digitaria sanguinalis, post-emergence, 312 h, read-out: Control of weed species DIGSA after post-emergence application (100=total damage to plant; 0=no damage to plant)
[15] = Lolium perenne, post-emergence, 312 h, read-out: Control of weed species LOLPE after post-emergence application (100=total damage to plant; 0=no damage to plant)

O=S(=O)(O)c1cccc(C[n+]2ccc3ccccc3n2)c1 [Compound A93, 3-(cinnolin-2-ium-2-ylmethyl)benzenesulfonic Acid]
Control of weed species EPHHL after post-emergence application (100=total damage to plant; 0=no damage to plant) [1]: 50
Control of weed species IPOHE after post-emergence application (100=total damage to plant; 0=no damage to plant) [2]: 40
Control of weed species ECHCG after post-emergence application (100=total damage to plant; 0=no damage to plant) [3]: 20
Control of weed species AMAPA after post-emergence application (100=total damage to plant; 0=no damage to plant) [4]: 10
Control of weed species SETFA after post-emergence application (100=total damage to plant; 0=no damage to plant) (Setaria faberi (SETFA)): 20
Control of weed species ELEIN after post-emergence application (100=total damage to plant; 0=no damage to plant) (Eleusine indica (ELEIN)): 10
Control of weed species CHEAL after post-emergence application (100=total damage to plant; 0=no damage to plant) [5]: 10
Control of weed species DIGSA after post-emergence application (100=total damage to plant; 0=no damage to plant) [6]: 20
Control of weed species LOLPE after post-emergence application (100=total damage to plant; 0=no damage to plant) (Lolium perenne (LOLPE)): 10

CC(C(=O)OC(C)(C)C)[n+]1ccc2ccccc2n1 (stereo not drawn) [Compound A116]
pest or weed control at 500 g/ha ([1]; Euphorbia heterophylla, post-emergence, 312 h, application rate 500 g/Ha, read-out: Control of weed species EPHHL after post-emergence application (100=total damage to plant; 0=no damage to plant)): 30%
pest or weed control at 500 g/ha ([2]; Ipomoea hederacea, post-emergence, 312 h, application rate 500 g/Ha, read-out: Control of weed species IPOHE after post-emergence application (100=total damage to plant; 0=no damage to plant)): 10%
pest or weed control at 500 g/ha ([3]; Echinochloa crus-galli, post-emergence, 312 h, application rate 500 g/Ha, read-out: Control of weed species ECHCG after post-emergence application (100=total damage to plant; 0=no damage to plant)): 30%
pest or weed control at 500 g/ha ([4]; Amaranthus palmeri, post-emergence, 312 h, application rate 500 g/Ha, read-out: Control of weed species AMAPA after post-emergence application (100=total damage to plant; 0=no damage to plant)): 60%
pest or weed control at 500 g/ha (Setaria faberi (SETFA); Setaria faberi, post-emergence, 312 h, application rate 500 g/Ha, read-out: Control of weed species SETFA after post-emergence application (100=total damage to plant; 0=no damage to plant)): 30%
pest or weed control at 500 g/ha (Eleusine indica (ELEIN); Eleusine indica, post-emergence, 312 h, application rate 500 g/Ha, read-out: Control of weed species ELEIN after post-emergence application (100=total damage to plant; 0=no damage to plant)): 30%
pest or weed control at 500 g/ha ([5]; Chenopodium album, post-emergence, 312 h, application rate 500 g/Ha, read-out: Control of weed species CHEAL after post-emergence application (100=total damage to plant; 0=no damage to plant)): 50%
pest or weed control at 500 g/ha ([6]; Digitaria sanguinalis, post-emergence, 312 h, application rate 500 g/Ha, read-out: Control of weed species DIGSA after post-emergence application (100=total damage to plant; 0=no damage to plant)): 40%
pest or weed control at 500 g/ha (Lolium perenne (LOLPE); Lolium perenne, post-emergence, 312 h, application rate 500 g/Ha, read-out: Control of weed species LOLPE after post-emergence application (100=total damage to plant; 0=no damage to plant)): 20%

CSc1c[n+](CCS(=O)(=O)O)nc2ccccc12.O=C([O-])C(F)(F)F [Compound A44]
Control of weed species EPHHL after post-emergence application (100=total damage to plant; 0=no damage to plant) [1]: 90
Control of weed species IPOHE after post-emergence application (100=total damage to plant; 0=no damage to plant) [2]: 20
Control of weed species ECHCG after post-emergence application (100=total damage to plant; 0=no damage to plant) [3]: 10
Control of weed species AMAPA after post-emergence application (100=total damage to plant; 0=no damage to plant) [4]: 30
Control of weed species SETFA after post-emergence application (100=total damage to plant; 0=no damage to plant) (Setaria faberi (SETFA)): 30
Control of weed species ELEIN after post-emergence application (100=total damage to plant; 0=no damage to plant) (Eleusine indica (ELEIN)): 70
Control of weed species CHEAL after post-emergence application (100=total damage to plant; 0=no damage to plant) [5]: 30
Control of weed species DIGSA after post-emergence application (100=total damage to plant; 0=no damage to plant) [6]: 30
Control of weed species LOLPE after post-emergence application (100=total damage to plant; 0=no damage to plant) (Lolium perenne (LOLPE)): 0

OCC[n+]1ccc2ccccc2n1 [Compound A119]
pest or weed control at 1000 g/ha [1, 7]: 80%
pest or weed control at 1000 g/ha [2, 8]: 50%
pest or weed control at 1000 g/ha [3, 9]: 20%
pest or weed control at 1000 g/ha [4, 10]: 90%
pest or weed control at 1000 g/ha (Setaria faberi (SETFA); [11]): 50%
pest or weed control at 1000 g/ha (Eleusine indica (ELEIN); [12]): 40%
pest or weed control at 1000 g/ha [5, 13]: 90%
pest or weed control at 1000 g/ha [6, 14]: 50%
pest or weed control at 1000 g/ha (Lolium perenne (LOLPE); [15]): 20%

C[C@@H](C[n+]1ccc2ccccc2n1)NS(=O)(=O)[O-] [Compound A45, N-[(1S)-2-cinnolin-2-ium-2-yl-1-methyl-ethyl]sulfamate]
pest or weed control at 1000 g/ha [1, 7]: 100%
pest or weed control at 1000 g/ha [2, 8]: 60%
pest or weed control at 1000 g/ha [3, 9]: 40%
pest or weed control at 1000 g/ha [4, 10]: 100%
pest or weed control at 1000 g/ha (Setaria faberi (SETFA); [11]): 80%
pest or weed control at 1000 g/ha (Eleusine indica (ELEIN); [12]): 100%
pest or weed control at 1000 g/ha [5, 13]: 80%
pest or weed control at 1000 g/ha [6, 14]: 80%
pest or weed control at 1000 g/ha (Lolium perenne (LOLPE); [15]): 60%

O=S(=O)([O-])OCCC[n+]1ccc2ccccc2n1 [Compound A27]
pest or weed control at 1000 g/ha [1, 7]: 60%
pest or weed control at 1000 g/ha [2, 8]: 50%
pest or weed control at 1000 g/ha [3, 9]: 50%
pest or weed control at 1000 g/ha [4, 10]: 100%
pest or weed control at 1000 g/ha (Setaria faberi (SETFA); [11]): 70%
pest or weed control at 1000 g/ha (Eleusine indica (ELEIN); [12]): 80%
pest or weed control at 1000 g/ha [5, 13]: 90%
pest or weed control at 1000 g/ha [6, 14]: 70%
pest or weed control at 1000 g/ha (Lolium perenne (LOLPE); [15]): 40%
